Measurements from patent US20130317055A1, “NEURONAL NICOTINIC AGONIST AND METHODS OF USE” (ABBVIE INC., priority 2012, published 2013).

Test system: clinically stable subjects with schizophrenia
Assay: Clinical Study A (Phase 2a, placebo-controlled): MATRICS Consensus Cognitive Battery (MCCB)
Assay type: in vivo, human
Details: for MCCB Reasoning and Problem Solving: Difference from Placebo LS Mean (SE) of Difference / MCCB Reasoning and Problem Solving: LS Mean (SE) of Change from Baseline / MCCB Reasoning and Problem Solving: Observed Mean (SD) of change from baseline / MCCB Attention/Vigilance: Difference from Placebo LS Mean (SE) of Difference / MCCB Attention/Vigilance: LS Mean (SE) of Change from Baseline / MCCB Attention/Vigilance: Observed Mean (SD) of change from baseline / MCCB Social Cognition: Difference from Placebo LS Mean (SE) of Difference / MCCB Social Cognition: LS Mean (SE) of Change from Baseline / MCCB Social Cognition: Observed Mean (SD) of change from baseline / MCCB Speed of Processing: Difference from Placebo LS Mean (SE) of Difference / MCCB Speed of Processing: LS Mean (SE) of Change from Baseline / MCCB Speed of Processing: Observed Mean (SD) of change from baseline / MCCB Verbal Learning: Difference from Placebo LS Mean (SE) of Difference / MCCB Verbal Learning: LS Mean (SE) of Change from Baseline / MCCB Verbal Learning: Observed Mean (SD) of change from baseline / MCCB Visual Learning: Difference from Placebo LS Mean (SE) of Difference / MCCB Visual Learning: LS Mean (SE) of Change from Baseline / MCCB Visual Learning: Observed Mean (SD) of change from baseline / MCCB Working Memory: Difference from Placebo LS Mean (SE) of Difference / MCCB Working Memory: LS Mean (SE) of Change from Baseline / MCCB Working Memory: Observed Mean (SD) of change from baseline: ITT
From the text: A Phase 2a proof-of-concept (POC) study in clinically stable subjects with schizophrenia who were clinically stable and received stable doses of atypical antipsychotic therapy. The study was a Phase 2, multi-center, randomized, double-blind, placebo-controlled, parallel group study designed to evaluate the safety and efficacy of doses of (4s)-4-(5-phenyl-1,3,4-thiadiazol-2-yloxy)-1-azatricyclo[3.3.1.1^3,7]decane (Compound A) in clinically stable male and female subjects (ages 20 to 55, inclusive) with a Diagnostic and Statistical Manual of Mental Disorders Fourth Edition, Text Revision (DSM-IV-TR) diagnosis of schizophrenia. Psychiatric diagnoses were confirmed using the Mini-International Neuropsychiatric Interview (MINI) version 6.0.0. The criteria for clinical stability was determined by a combination of retrospective data (over the 4 months prior to the start of Screening, which will be supported by clinical records, patient, identified responsible contact person, and physician interviews), and prospective data assessed during the Prospective Stabilization Period of 28 to 42 days duration.
The study was a Phase 2, multi-center, randomized, double-blind, placebo-controlled, parallel group study designed to evaluate the safety and efficacy of doses of (4s)-4-(5-phenyl-1,3,4-thiadiazol-2-yloxy)-1-azatrieyclo[3.3.1.1^3,7]decane, which is also recognized as Compound A, in treating cognitive deficits in subjects with schizophrenia who were clinically stable and receiving one or two atypical antipsychotic medications. Study drug was administered orally.
The study consisted of a screening period of at least 28 and up to 42 days, a 84-day outpatient treatment period, a 14-day post-treatment period, and a post-treatment follow-up period. The screening period consisted of three visits: Screening Visit 1, Screening Visit 2, and Day −1. Upon completion of Day −1 procedures, eligible subjects were randomized through an Interactive Voice Response/Interactive Web-Based (IVR/IWB) system. Subjects were randomized in an equal ratio to one of three treatment groups (placebo, 10 mg Compound A, or 25 mg Compound A).
Subjects were randomized in a 1:1:1 ratio with placebo, 10 mg QD Compound A, of 25 mg Compound A. Each subject was instructed to take study drug once-daily in the morning for 12 weeks. Each daily dose was preferably taken with food. The subject and investigator were blinded to the treatment assignment throughout the study. The treatment assignments for the study subjects are shown below in Table 1.
The primary endpoint was the MCCB composite score, and the primary endpoint analysis was the change on the MCCB composite score from baseline to endpoint versus placebo. Other secondary measures included the MCCB domains, the NSA-16, the CANTAB cognition battery (measured at different time points from the MCCB), and the UPSA-2. The Positive and Negative Syndrome Scale (PANSS) was included to document stability in schizophrenia symptomatology.
The MCCB was developed by a consortium of academic, industry, the Food and Drug Administration (FDA) and National Institute of Mental Health ([…]) members called Measurement and Treatment Research to Improve Cognition in Schizophrenia (MATRICS). The battery was established in a multiple phase process that involved experts identifying cognitive tests in the literature that had shown deficits in schizophrenia, use of factor analysis to identify key domains of cognitive deficits in schizophrenia, and then empirically identifying the best tests for each domain based on reliability, validity and feasibility for use in clinical trials. The FDA has endorsed the MCCB as an appropriate outcome measure for Phase 3 CDS trials. […]

c1ccc(-c2nnc(O[C@@H]3C4CC5C[C@H]3C[N@](C5)C4)s2)cc1 [Compound A, (4s)-4-(5-phenyl-1,3,4-thiadiazol-2-yloxy)-1-azatricyclo[3.3.1.1^3,7]decane]
MCCB Reasoning and Problem Solving: Difference from Placebo LS Mean (SE) of Difference (10 mg QD, Change to Week 2): 1.24 (1.18) T-score | MCCB Reasoning and Problem Solving: LS Mean (SE) of Change from Baseline (10 mg QD, Change to Week 2): 1.99 (0.84) T-score | MCCB Reasoning and Problem Solving: Observed Mean (SD) of change from baseline (10 mg QD, Change to Week 2): 1.70 (6.03) T-score | MCCB Attention/Vigilance: Difference from Placebo LS Mean (SE) of Difference (10 mg QD, Change to Week 6): 1.29 (1.35) T-score | MCCB Attention/Vigilance: LS Mean (SE) of Change from Baseline (10 mg QD, Change to Week 6): 0.49 (0.98) T-score | MCCB Attention/Vigilance: Observed Mean (SD) of change from baseline (10 mg QD, Change to Week 6): 0.83 (7.62) T-score | MCCB Reasoning and Problem Solving: Difference from Placebo LS Mean (SE) of Difference (10 mg QD, Change to Week 6): 0.53 (1.03) T-score | MCCB Reasoning and Problem Solving: LS Mean (SE) of Change from Baseline (10 mg QD, Change to Week 6): 0.49 (0.75) T-score | MCCB Reasoning and Problem Solving: Observed Mean (SD) of change from baseline (10 mg QD, Change to Week 6): 0.08 (5.57) T-score | MCCB Social Cognition: Difference from Placebo LS Mean (SE) of Difference (10 mg QD, Change to Week 6): −0.46 (1.34) T-score | MCCB Social Cognition: LS Mean (SE) of Change from Baseline (10 mg QD, Change to Week 6): 1.04 (0.97) T-score | MCCB Social Cognition: Observed Mean (SD) of change from baseline (10 mg QD, Change to Week 6): 1.14 (7.87) T-score | MCCB Speed of Processing: Difference from Placebo LS Mean (SE) of Difference (10 mg QD, Change to Week 6): 0.74 (1.04) T-score | MCCB Speed of Processing: LS Mean (SE) of Change from Baseline (10 mg QD, Change to Week 6): 1.13 (0.74) T-score | MCCB Speed of Processing: Observed Mean (SD) of change from baseline (10 mg QD, Change to Week 6): 1.00 (5.49) T-score | MCCB Verbal Learning: Difference from Placebo LS Mean (SE) of Difference (10 mg QD, Change to Week 6): 0.24 (1.12) T-score | MCCB Verbal Learning: LS Mean (SE) of Change from Baseline (10 mg QD, Change to Week 6): 0.31 (0.82) T-score | MCCB Verbal Learning: Observed Mean (SD) of change from baseline (10 mg QD, Change to Week 6): 0.68 (7.99) T-score | MCCB Visual Learning: Difference from Placebo LS Mean (SE) of Difference (10 mg QD, Change to Week 6): 1.74 (1.57) T-score | MCCB Visual Learning: LS Mean (SE) of Change from Baseline (10 mg QD, Change to Week 6): 1.59 (1.13) T-score | MCCB Visual Learning: Observed Mean (SD) of change from baseline (10 mg QD, Change to Week 6): 1.35 (9.36) T-score | MCCB Working Memory: Difference from Placebo LS Mean (SE) of Difference (10 mg QD, Change to Week 6): 0.86 (1.03) T-score | MCCB Working Memory: LS Mean (SE) of Change from Baseline (10 mg QD, Change to Week 6): 0.35 (0.75) T-score | MCCB Working Memory: Observed Mean (SD) of change from baseline (10 mg QD, Change to Week 6): 0.27 (5.15) T-score | MCCB Attention/Vigilance: Difference from Placebo LS Mean (SE) of Difference (10 mg QD, Change to Week 12): 2.63 (1.49) T-score | MCCB Attention/Vigilance: LS Mean (SE) of Change from Baseline (10 mg QD, Change to Week 12): 0.64 (1.06) T-score | MCCB Attention/Vigilance: Observed Mean (SD) of change from baseline (10 mg QD, Change to Week 12): 1.15 (8.46) T-score | MCCB Social Cognition: Difference from Placebo LS Mean (SE) of Difference (10 mg QD, Change to Week 12): 0.40 (1.52) T-score | MCCB Social Cognition: LS Mean (SE) of Change from Baseline (10 mg QD, Change to Week 12): 0.99 (1.08) T-score | MCCB Social Cognition: Observed Mean (SD) of change from baseline (10 mg QD, Change to Week 12): 1.38 (6.51) T-score | MCCB Speed of Processing: Difference from Placebo LS Mean (SE) of Difference (10 mg QD, Change to Week 12): 1.08 (1.20) T-score | MCCB Speed of Processing: LS Mean (SE) of Change from Baseline (10 mg QD, Change to Week 12): 2.36 (0.85) T-score | MCCB Speed of Processing: Observed Mean (SD) of change from baseline (10 mg QD, Change to Week 12): 2.33 (6.05) T-score | MCCB Verbal Learning: Difference from Placebo LS Mean (SE) of Difference (10 mg QD, Change to Week 12): 0.61 (1.10) T-score | MCCB Verbal Learning: LS Mean (SE) of Change from Baseline (10 mg QD, Change to Week 12): 1.08 (0.79) T-score | MCCB Verbal Learning: Observed Mean (SD) of change from baseline (10 mg QD, Change to Week 12): 1.28 (7.06) T-score | MCCB Visual Learning: Difference from Placebo LS Mean (SE) of Difference (10 mg QD, Change to Week 12): 0.73 (1.59) T-score | MCCB Visual Learning: LS Mean (SE) of Change from Baseline (10 mg QD, Change to Week 12): 0.29 (1.12) T-score | MCCB Visual Learning: Observed Mean (SD) of change from baseline (10 mg QD, Change to Week 12): 0.05 (8.06) T-score | MCCB Working Memory: Difference from Placebo LS Mean (SE) of Difference (10 mg QD, Change to Week 12): 0.80 (1.18) T-score | MCCB Working Memory: LS Mean (SE) of Change from Baseline (10 mg QD, Change to Week 12): 0.92 (0.84) T-score | MCCB Working Memory: Observed Mean (SD) of change from baseline (10 mg QD, Change to Week 12): 0.83 (7.04) T-score | MCCB domains with dose response relationship (10 mg and 25 mg, exception reasoning): 6 of the 7 domains | MCCB composite score: LS mean change from baseline (10 mg, baseline to Week 6, MNIRIVI analysis, placebo LS mean +0.49): +1.25 | MCCB Reasoning and Problem Solving: Difference from Placebo LS Mean (SE) of Difference (25 mg QD, Change to Week 2): 1.20 (1.24) T-score
